Measured values as given in patent US8377876B2, “Pediatric amino acid solution for parenteral nutrition” (Fresenius Kabi Deutschland GmbH, priority 2006, dated 2013).
Peptide text beside a SMILES is read from it.

Experiment: Thermal sterilization of 200 g/l alanyl-glutamine solution; degradation products determined after sterilization
Format: physicochemical
Settings: sterilization at 121° C., 124° C. and 127° C., pH 5 to 6, constant F0 12-12.5
Description: The sterilization temperature is in this connection preferably ≧124° C. and particularly preferably ≧127° C. The pH is preferably between 5 and 6.5. It is possible to reduce the holding times for the thermal sterilization on use of higher temperatures. Under the preferred conditions, distinctly smaller amounts of degradation products are found in the sterilized product (example 3).
A solution of 200 g/l alanyl-glutamine was sterilized at temperatures of 121° C., 124° C. and 127° C. The pH was varied between pH 5, pH 5.5 and pH 6. […] The F0 value describes the sterilization efficiency and corresponds to the holding time at 121.11° C. For sterilization at higher temperatures, the holding times were reduced to maintain a constant F0 value. After the sterilization, the amounts of the degradation products of the dipeptide alanyl-glutamine, cyclo-alanyl-glutamine and L-pyro-alanyl-glutamine were determined. Lower values for these degradation products are a direct indication of the stability of the dipeptide during the sterilization.

In the case of `C[C@H](N)C(=O)N[C@@H](CCC(N)=O)C(=O)O` [alanyl-glutamine, L-Alanyl-L-glutamine] (H-Ala-Gln-OH), the “values for the degradation products (stability of the dipeptide during sterilization)” value was “fell at higher temperature”.
